Assay [1] concerns the target T1, baculovirus-expressed ALK (Homo sapiens, UniProt Q9UM73).
T1 construct: host or cells: baculovirus expression system
Nature of the assay: ALK Kinase Assay (ELISA-type, time-resolved fluorescence). The class given is biochemical. In a few lines:
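Substrate coating: phospholipase C-γ, 10 μg/mL in TBS. Kinase step: 30 ng/ml ALK, 15 min, 37° C. Detection and analysis: Eu-N1 PT66 antibody, with IC50 fitted as a sigmoidal variable-slope dose-response curve.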

Assay [2] deals with T2, c-Met (cytoplasmic domain) (Homo sapiens, UniProt P08581).
T2 construct: 10 ng/mL c-Met (cytoplasmic domain, Invitrogen Corporation #PV3143); purchased Invitrogen Corporation PV3143
Nature of the assay: c-Met Kinase Assay (same methods as for ALK, with modifications). The class given is biochemical. In short, it runs like this:
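Wells were coated with 10 μg/mL phospholipase C-γ substrate in TBS, and reactions were started with 10 ng/mL c-Met cytoplasmic domain and run at 37° C for 15 minutes. Phosphorylated product was detected with Eu-N1-labeled PT66 antibody. IC50 values came from sigmoidal variable-slope fits of percent inhibition versus log compound concentration.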

Where [3] appears, read: ALK kinase inhibition, 1 μM ATP, read-out: ALK Activity.
Setting [4] is: c-Met kinase inhibition, 1 μM ATP, read-out: cMet Activity.
Where [5] appears, read: 1 μM ATP (Km level), read-out: ALK Activity (ALK Kinase Inhibition, IC50).
Setting [6] is: 1 μM ATP (Km level), read-out: cMet Activity (c-Met Kinase Inhibition, IC50).
The mark [7] stands for this setting: 1 μM ATP (Km level), 30 ng/ml ALK, 37° C., 15 minutes, read-out: ALK Activity (ALK kinase inhibition, IC50 class).
Setting [8] is: 1 μM ATP (Km level), 10 ng/mL c-Met, read-out: cMet Activity (c-Met kinase inhibition, IC50 class).
[9] abbreviates: ALK kinase inhibition, 1 μM ATP (Km level), read-out: ALK Activity.
The mark [10] stands for this setting: c-Met kinase inhibition, 1 μM ATP (Km level), read-out: cMet Activity.

Like-named read-outs stand apart in the source and are kept apart here. Bounds are passed on as bounds.

T1 sequence (Q9UM73 19-1620): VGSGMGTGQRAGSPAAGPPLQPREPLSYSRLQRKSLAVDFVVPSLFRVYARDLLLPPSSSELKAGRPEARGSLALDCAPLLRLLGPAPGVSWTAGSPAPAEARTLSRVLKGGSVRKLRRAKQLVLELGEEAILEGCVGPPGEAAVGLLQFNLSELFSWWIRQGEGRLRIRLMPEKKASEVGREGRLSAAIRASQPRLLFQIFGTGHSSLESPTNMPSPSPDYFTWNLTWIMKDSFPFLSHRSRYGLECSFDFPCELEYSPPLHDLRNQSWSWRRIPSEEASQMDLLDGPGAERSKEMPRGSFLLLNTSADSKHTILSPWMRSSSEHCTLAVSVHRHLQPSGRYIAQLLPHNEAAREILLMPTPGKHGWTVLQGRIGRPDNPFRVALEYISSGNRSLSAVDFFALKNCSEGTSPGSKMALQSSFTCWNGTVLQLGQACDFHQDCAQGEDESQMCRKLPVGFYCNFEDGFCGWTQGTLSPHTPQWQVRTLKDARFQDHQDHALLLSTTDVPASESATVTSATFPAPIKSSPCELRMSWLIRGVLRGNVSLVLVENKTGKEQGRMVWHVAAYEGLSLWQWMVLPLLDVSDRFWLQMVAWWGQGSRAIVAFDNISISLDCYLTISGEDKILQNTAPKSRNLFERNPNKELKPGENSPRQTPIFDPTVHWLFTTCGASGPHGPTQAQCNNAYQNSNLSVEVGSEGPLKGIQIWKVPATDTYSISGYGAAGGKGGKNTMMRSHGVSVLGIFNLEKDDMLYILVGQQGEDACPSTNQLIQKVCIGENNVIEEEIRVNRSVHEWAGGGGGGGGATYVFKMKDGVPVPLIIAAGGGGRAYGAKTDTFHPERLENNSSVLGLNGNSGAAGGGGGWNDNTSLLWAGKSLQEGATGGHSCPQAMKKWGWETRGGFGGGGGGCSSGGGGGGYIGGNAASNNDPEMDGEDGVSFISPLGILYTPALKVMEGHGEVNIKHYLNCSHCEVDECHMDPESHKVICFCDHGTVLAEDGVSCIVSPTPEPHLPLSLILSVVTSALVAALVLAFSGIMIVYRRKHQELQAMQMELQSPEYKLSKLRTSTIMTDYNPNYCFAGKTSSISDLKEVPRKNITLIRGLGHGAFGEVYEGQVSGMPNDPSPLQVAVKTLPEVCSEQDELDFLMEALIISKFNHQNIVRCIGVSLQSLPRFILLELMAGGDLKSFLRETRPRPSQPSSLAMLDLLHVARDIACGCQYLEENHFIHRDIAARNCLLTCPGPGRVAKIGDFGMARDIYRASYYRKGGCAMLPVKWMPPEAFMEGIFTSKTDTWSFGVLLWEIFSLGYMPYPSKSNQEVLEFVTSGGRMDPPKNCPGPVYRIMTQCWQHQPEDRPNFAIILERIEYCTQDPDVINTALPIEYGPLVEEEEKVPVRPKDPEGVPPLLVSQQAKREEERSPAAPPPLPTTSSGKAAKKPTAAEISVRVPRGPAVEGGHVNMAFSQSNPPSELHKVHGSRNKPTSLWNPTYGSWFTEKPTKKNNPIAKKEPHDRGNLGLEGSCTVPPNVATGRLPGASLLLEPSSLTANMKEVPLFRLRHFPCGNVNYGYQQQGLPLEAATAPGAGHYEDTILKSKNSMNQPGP
T2 sequence (P08581 956-1390 limits assumed): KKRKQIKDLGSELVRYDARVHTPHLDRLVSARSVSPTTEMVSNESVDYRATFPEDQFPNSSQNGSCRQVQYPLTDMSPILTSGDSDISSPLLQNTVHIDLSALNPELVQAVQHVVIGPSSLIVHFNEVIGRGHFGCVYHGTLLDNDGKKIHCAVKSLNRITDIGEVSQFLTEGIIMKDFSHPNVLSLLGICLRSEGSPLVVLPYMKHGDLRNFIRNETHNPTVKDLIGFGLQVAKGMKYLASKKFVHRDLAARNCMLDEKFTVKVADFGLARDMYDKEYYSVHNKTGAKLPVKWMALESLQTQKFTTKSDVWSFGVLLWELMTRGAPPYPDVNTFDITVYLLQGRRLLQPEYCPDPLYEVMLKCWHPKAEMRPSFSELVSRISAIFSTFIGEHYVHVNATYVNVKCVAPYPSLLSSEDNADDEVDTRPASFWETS

Turning to `CCN1CCNC(=O)c2ccc(Nc3ncc(Cl)c(Nc4ccccc4C(=O)NC)n3)cc21` [Example 1452, 2-[5-Chloro-2-(1-ethyl-5-oxo-2,3,4,5-tetrahydro-1H-benzo[e][1,4]diazepin-8-ylamino)-pyrimidin-4-ylamino]-N-methyl-benzamide], the IC50 in assay [1] (setting [3]) and in assay [2] (setting [4]) was less than 100 nM each time.
On to `O=C1CCCc2ccc(Nc3ncc(Cl)c(Nc4c(F)cccc4C(=O)NCC4CC4)n3)cc2N1` [Example 1712, 2-[5-Chloro-2-(2-oxo-2,3,4,5-tetrahydro-1H-benzo[b]azepin-8-ylamino)-pyrimidin-4-ylamino]-N-cyclopropylmethyl-3-fluoro-benzamide], for which the IC50 in assay [1] (setting [3]) and in assay [2] (setting [4]) was 1000 to 10000 nM each time.
As for `Cc1cccnc1-c1ccccc1Nc1nc(Nc2ccc3c(c2)C(C)(C)CCC(=O)N3)ncc1Cl` [Example 971, 7-{5-Chloro-4-[2-(3-methyl-pyridin-2-yl)-phenylamino]-pyrimidin-2-ylamino}-5,5-dimethyl-1,3,4,5-tetrahydro-benzo[b]azepin-2-one], the IC50 in assay [1] (setting [5]) is less than 100 nM; in assay [2] (setting [6]), 1000 to 10000 nM.
Take `CNC(=O)c1ccccc1Nc1nc(Nc2ccc3c(c2)C(C)(C)NC(=O)CC3)ncc1Cl` [Example 1833, 2-(5-Chloro-2-(1,1-dimethyl-3-oxo-2,3,4,5-tetrahydro-1H-benzo[c]azepin-8-ylamino)pyrimidin-4-ylamino)-N-methylbenzamide]: the IC50 in assay [1] (setting [3]) is less than 100 nM; in assay [2] (setting [4]), 100 to 1000 nM.
For the molecule `CCN1C(=O)[C@H](N)CCc2c1ccc(Nc1ncc(Cl)c(N[C@H]3[C@@H](C(N)=O)[C@@H]4C=C[C@H]3C4)n1)c2OC` (single isomer, unassigned) [Example 1331], the IC50 in assay [1] (setting [7]) is less than 100 nM; in assay [2] (setting [8]) it was more than 10000 nM.
As for `COc1cc2c(cc1Nc1ncc(Cl)c(Nc3ccc(N4CCOCC4)cc3OC)n1)C(C)(C)CCC(=O)N2` [Example 1672, 7-[5-Chloro-4-(2-methoxy-4-morpholin-4-yl-phenylamino)-pyrimidin-2-ylamino]-8-methoxy-5,5-dimethyl-1,3,4,5-tetrahydro-benzo[b]azepin-2-one], the figures for the IC50 in assay [1] (setting [3]) and in assay [2] (setting [4]) were 100 to 1000 nM and more than 10000 nM, respectively.
Regarding `NC(=O)[C@@H]1[C@H](Nc2nc(Nc3ccc4c(c3)CCC(N3CCOCC3)CC4)ncc2C(F)(F)F)[C@H]2C=C[C@@H]1C2` (stereo partly drawn) [Example 935, (1S,2S,3R,4R)-3-[2-(7-Morpholin-4-yl-6,7,8,9-tetrahydro-5H-benzocyclohepten-2-ylamino)-5-trifluoromethyl-pyrimidin-4-ylamino]-bicyclo[2.2.1]hept-5-ene-2-carboxylic acid amide], the IC50 in assay [1] (setting [5]) and in assay [2] (setting [6]) was less than 100 nM in each case.
On to `CCN1C(=O)[C@@H](N2CCOCC2)CCc2c1ccc(Nc1ncc(Cl)c(N[C@H]3[C@@H](C(N)=O)[C@@H]4C=C[C@H]3C4)n1)c2OC` (single isomer, unassigned) [Example 1345], for which the IC50 in assay [1] (setting [7]) was less than 100 nM; in assay [2] (setting [8]) it was more than 10000 nM.
Regarding `CNC(=O)CN1CCc2cc(Nc3ncc(Cl)c(Nc4ccccc4C(=O)NC)n3)c(OC)cc2CC1` [Example 1114, 2-[5-Chloro-2-(8-methoxy-3-methylcarbamoylmethyl-2,3,4,5-tetrahydro-1H-benzo[d]azepin-7-ylamino)-pyrimidin-4-ylamino]-N-methyl-benzamide], the IC50 in assay [1] (setting [7]) was less than 100 nM; in assay [2] (setting [8]), 1000 to 10000 nM.
With `COCCN1CCc2ccc(Nc3ncc(Cl)c(NC4C5CCC(C5)C4C(N)=O)n3)cc2CC1` (stereo not drawn) [Example 177, (2-exo,3-exo)-3-{5-Chloro-2-[3-(2-methoxy-ethyl)-2,3,4,5-tetrahydro-1H-benzo[d]azepin-7-ylamino]-pyrimidin-4-ylamino}-bicyclo[2.2.1]heptane-2-carboxylic acid amide], the IC50 in assay [1] (setting [9]) was less than 100 nM; in assay [2] (setting [10]), 100 to 1000 nM.
For the molecule `COc1cc2c(cc1Nc1ncc(Cl)c(Nc3ccccc3S(=O)(=O)N3CC[C@H](O)C3)n1)CCN(CC(=O)N(C)C)CC2` [Example 1206, 2-(7-{5-Chloro-4-[2-((S)-3-hydroxy-pyrrolidine-1-sulfonyl)-phenylamino]-pyrimidin-2-ylamino}-8-methoxy-1,2,4,5-tetrahydro-benzo[d]azepin-3-yl)-N,N-dimethyl-acetamide], the IC50 was less than 100 nM in assay [1] (setting [7]) and 1000 to 10000 nM in assay [2] (setting [8]).
Take `CCCNC(=O)c1ccccc1Nc1nc(Nc2ccc3c(c2)C(C)(C)CCC(=O)N3)ncc1Cl` [Example 1022, 2-[5-Chloro-2-(5,5-dimethyl-2-oxo-2,3,4,5-tetrahydro-1H-benzo[b]azepin-7-ylamino)-pyrimidin-4-ylamino]-N-propyl-benzamide]: the IC50 in assay [1] (setting [7]) was less than 100 nM; in assay [2] (setting [8]), 100 to 1000 nM.
Take `CNC(=O)C1C2C=CC(C2)C1Nc1nc(Nc2cc3c(cc2OC)CCN(CCOC)CC3)ncc1Cl` (stereo not drawn) [Example 604, (2-exo-3-exo)-3-{5-Chloro-2-[8-methoxy-3-(2-methoxy-ethyl)-2,3,4,5-tetrahydro-1H-benzo[d]azepin-7-ylamino]-pyrimidin-4-ylamino}-bicyclo[2.2.1]hept-5-ene-2-carboxylic acid methylamide]: the IC50 in assay [1] (setting [5]) is less than 100 nM; in assay [2] (setting [6]) it was more than 10000 nM.
On to `CCN1CCN(CC)c2cc(Nc3ncc(Cl)c(N[C@@H]4CCCC[C@H]4NS(C)(=O)=O)n3)ccc2C1` [Example 426, N-{(1R,2R)-2-[5-Chloro-2-(1,4-diethyl-2,3,4,5-tetrahydro-1H-benzo[e][1,4]diazepin-8-ylamino)-pyrimidin-4-ylamino]-cyclohexyl}-methanesulfonamide], for which the IC50 in assay [1] (setting [9]) is less than 100 nM; in assay [2] (setting [10]) it was 100 to 1000 nM.
On to `CCN1CCN(CC)c2cc(Nc3ncc(Cl)c(N[C@@H]4CCCC[C@H]4NS(C)(=O)=O)n3)c(OC)cc2C1` [Example 1456, N-{(1R,2R)-2-[5-Chloro-2-(1,4-diethyl-7-methoxy-2,3,4,5-tetrahydro-1H-benzo[e][1,4]diazepin-8-ylamino)-pyrimidin-4-ylamino]-cyclohexyl}-methanesulfonamide], for which the results for the IC50 in assay [1] (setting [3]) and in assay [2] (setting [4]) were less than 100 nM and more than 10000 nM, respectively.
Consider `CNC(=O)c1ccccc1Nc1nc(Nc2ccc3c(c2)CNC(=O)CCN3C(C)=O)ncc1Cl` [Example 1305, 2-[2-(1-Acetyl-4-oxo-1,2,3,4,5,6-hexahydro-benzo[b][1,5]diazocin-8-ylamino)-5-chloro-pyrimidin-4-ylamino]-N-methyl-benzamide], for which the IC50 in assay [1] (setting [7]) and in assay [2] (setting [8]) was less than 100 nM in each case.
Regarding `COc1c(Nc2ncc(Cl)c(Nc3ccccc3S(=O)(=O)N3CCCC3)n2)ccc2c1CCC(NCCO)CC2` (stereo not shown) [Example 704, 2-(2-{5-Chloro-4-[2-(pyrrolidine-1-sulfonyl)-phenylamino]-pyrimidin-2-ylamino}-1-methoxy-6,7,8,9-tetrahydro-5H-benzocyclohepten-7-ylamino)-ethanol], the IC50 is less than 100 nM in assay [1] (setting [5]) and 100 to 1000 nM in assay [2] (setting [6]).
On to `CC1(C)CCC(=O)Nc2ccc(Nc3ncc(Cl)c(Nc4ccc(N5CCOCC5)cc4-n4cccn4)n3)cc21` [Example 627, 7-[5-Chloro-4-(4-morpholin-4-yl-2-pyrazol-1-yl-phenylamino)-pyrimidin-2-ylamino]-5,5-dimethyl-1,3,4,5-tetrahydro-benzo[b]azepin-2-one], for which the results for the IC50 in assay [1] (setting [5]) and in assay [2] (setting [6]) were less than 100 nM and 1000 to 10000 nM, respectively.
Regarding `CNC(=O)c1ccccc1Nc1nc(Nc2ccc3c(c2)C(=O)NCCO3)ncc1Cl` [Example 1880, 2-[5-Chloro-2-(5-oxo-2,3,4,5-tetrahydro-benzo[f][1,4]oxazepin-7-ylamino)-pyrimidin-4-ylamino]-N-methyl-benzamide], the IC50 in assay [1] (setting [9]) and in assay [2] (setting [10]) was less than 100 nM in each case.
For `CNC(=O)c1cccc(F)c1Nc1nc(Nc2ccc3c(c2)CCN(CC(=O)N(C)C)CC3)ncc1Cl` [Example 1369, 2-[5-Chloro-2-(3-dimethylcarbamoylmethyl-2,3,4,5-tetrahydro-1H-benzo[d]azepin-7-ylamino)-pyrimidin-4-ylamino]-3-fluoro-N-methyl-benzamide], the IC50 in assay [1] (setting [7]) and in assay [2] (setting [8]) was less than 100 nM each time.
Consider `COCCN1C(=O)CCCc2c1ccc(Nc1ncc(Cl)c(N[C@@H]3[C@H](C(N)=O)[C@H]4C=C[C@@H]3C4)n1)c2OC` [Example 128, (2-exo,3-exo)-3-{5-Chloro-2-[6-methoxy-1-(2-methoxy-ethyl)-2-oxo-2,3,4,5-tetrahydro-1H-benzo[b]azepin-7-ylamino]-pyrimidin-4-ylamino}-bicyclo[2.2.1]hept-5-ene-2-carboxylic acid amide], for which the results for the IC50 in assay [1] (setting [9]) and in assay [2] (setting [10]) were less than 100 nM and more than 10000 nM, respectively.
Turning to “{2-[2-(1-Acetyl-4-oxo-1,2,3,4,5,6-hexahydro-benzo[b][1,5]diazocin-8-ylamino)-5-chloro-pyrimidin-4-ylamino]-3-methyl-phenoxy}-acetonitrile [Example 1247]”, the IC50 in assay [1] (setting [7]) is less than 100 nM; in assay [2] (setting [8]), 100 to 1000 nM.
In the same order, the values of `CNC(=O)CN1CCc2cc(Nc3ncc(Cl)c(NC4C5C=CC(C5)C4C(N)=O)n3)c(OC)cc2CC1` (stereo not drawn) [Example 1117, (2-exo,3-exo)-3-[5-Chloro-2-(8-methoxy-3-methylcarbamoylmethyl-2,3,4,5-tetrahydro-1H-benzo[d]azepin-7-ylamino)-pyrimidin-4-ylamino]-bicyclo[2.2.1]hept-5-ene-2-carboxylic acid amide] are less than 100 nM and more than 10000 nM.

The record behind these values is patent publication US8148391B2 (Cephalon, Inc., priority 2006, dated 2012).
